Legend:
Assay type in all cases: functional
[1] = test system: Onchocerca lienalis; assay: MMV: Percent motility assay at a compound concentration of 1.9e-7 M. Activity score legend: 3: Active, 2: Moderately active; 1: Inactive, 0: Toxic; details: at 0.19 µM
[2] = test system: Onchocerca lienalis; assay: MMV: Percent motility assay at a compound concentration of 7.8e-7 M. Activity score legend: 3: Active, 2: Moderately active; 1: Inactive, 0: Toxic; details: at 0.78 µM
[3] = test system: Onchocerca lienalis; assay: MMV: Percent motility assay at a compound concentration of 1.25e-5 M. Activity score legend: 3: Active, 2: Moderately active; 1: Inactive, 0: Toxic; details: at 12.5 µM
[4] = test system: Onchocerca lienalis; assay: MMV: Percent motility assay at a compound concentration of 3.1e-6 M. Activity score legend: 3: Active, 2: Moderately active; 1: Inactive, 0: Toxic; details: at 3.1 µM

## COc1ccc2c(c1)C1(Nc3ccccc3-c3nc4ccccc4n31)C(=O)N2 (stereo not given)
[1]
  Motility: 100%
[2]
  Motility: 100%
[3]
  Motility: 100%
[4]
  Motility: 100%

## COc1cccc(Cn2c(Oc3ccccc3)nc3c2c(=O)n(C)c(=O)n3C)c1
[1]
  Motility: 100%
[2]
  Motility: 100%
[3]
  Motility: 100%
[4]
  Motility: 100%

## CCOc1c(Cl)cc(CNCC(O)c2ccccc2)cc1OC (stereo not given)
[1]
  Motility: 100%
[2]
  Motility: 100%
[3]
  Motility: 100%
[4]
  Motility: 100%

## OC(CNCC1CCCO1)Cn1c2ccc(Cl)cc2c2cc(Cl)ccc21 (stereo not given)
[1]
  Motility: 100%
[2]
  Motility: 100%
[3]
  Motility: 100%
[4]
  Motility: 100%

## COc1ccc2nc(C)cc(Nc3ccccc3O)c2c1
[1]
  Motility: 100%
[2]
  Motility: 100%
[3]
  Motility: 100%
[4]
  Motility: 100%

## CCn1nc(-c2ccc(C(=O)OC)cc2)nc2c(=O)n(C)c(=O)nc1-2
[1]
  Motility: 100%
[2]
  Motility: 100%
[3]
  Motility: 100%
[4]
  Motility: 100%

## CCOc1ccccc1CN1CCc2nc3cc(C(C)(C)C)nn3c(O)c2C1
[1]
  Motility: 100%
[2]
  Motility: 100%
[3]
  Motility: 100%
[4]
  Motility: 100%

## Cc1cc(N2CCCC2)nc(Nc2ccc(NC(=O)CCc3ccccc3)cc2)n1
[1]
  Motility: 100%
[2]
  Motility: 100%
[3]
  Motility: 13.33%
[4]
  Motility: 66.66%

## CN1CCN(c2ncnc3c2[nH]c2ccc(Cl)cc23)CC1
[1]
  Motility: 100%
[2]
  Motility: 100%
[3]
  Motility: 100%
[4]
  Motility: 100%

## CC1(c2ccccc2)Nc2ccccc2-c2nc3ccccc3n21 (stereo not given)
[1]
  Motility: 100%
[2]
  Motility: 100%
[3]
  Motility: 100%
[4]
  Motility: 100%

## CC(C)(C)CC(C)(C)NCC(O)COc1ccc(Cl)cc1Cl (stereo not given)
[1]
  Motility: 100%
[2]
  Motility: 100%
[3]
  Motility: 100%
[4]
  Motility: 100%

## O=C(Nc1ccc(Br)cc1)Nc1cccc(Cl)c1
[1]
  Motility: 100%
[2]
  Motility: 100%
[3]
  Motility: 100%
[4]
  Motility: 100%

## CN(C)CCNc1cc(-c2ccccc2)nc2ccccc12
[1]
  Motility: 100%
[2]
  Motility: 100%
[3]
  Motility: 100%
[4]
  Motility: 100%

## COc1ccc2nc(C)cc(Nc3ccc(Cl)cc3)c2c1
[1]
  Motility: 100%
[2]
  Motility: 100%
[3]
  Motility: 0%
[4]
  Motility: 100%

## CCC(O)c1ccc(Br)cc1NC(=O)c1cccc(Cl)c1 (stereo not given)
[1]
  Motility: 100%
[2]
  Motility: 100%
[3]
  Motility: 100%
[4]
  Motility: 100%

## COc1ccc2nc(C)cc(Nc3cccc(O)c3)c2c1.Cl
[1]
  Motility: 100%
[2]
  Motility: 100%
[3]
  Motility: 100%
[4]
  Motility: 100%

## CN(C)CCCNCc1ccc(-c2ccc(F)c(Cl)c2)o1.Cl
[1]
  Motility: 100%
[2]
  Motility: 100%
[3]
  Motility: 100%
[4]
  Motility: 100%

## O=c1nc(C=Cc2ccc(Br)cc2)oc2ccccc12
[1]
  Motility: 100%
[2]
  Motility: 100%
[3]
  Motility: 100%
[4]
  Motility: 100%

## COc1ccc2nc(N)nc(C)c2c1
[1]
  Motility: 100%
[2]
  Motility: 100%
[3]
  Motility: 100%
[4]
  Motility: 100%

## Cc1sc2ncnc(Sc3nc4ccccc4[nH]3)c2c1C
[1]
  Motility: 100%
[2]
  Motility: 100%
[3]
  Motility: 100%
[4]
  Motility: 100%

## CCC(=O)Nc1nnc(Cc2ccc(OC)c(OC)c2)s1
[1]
  Motility: 100%
[2]
  Motility: 100%
[3]
  Motility: 100%
[4]
  Motility: 100%

## O=C(Nc1ccc(CN2CCOCC2)cc1)c1ccc(-c2cc(Cl)ccc2Cl)o1
[1]
  Motility: 100%
[2]
  Motility: 100%
[3]
  Motility: 100%
[4]
  Motility: 100%

## Cc1cc(Nc2cccc(F)c2)nc(NCc2ccccc2)n1
[1]
  Motility: 100%
[2]
  Motility: 100%
[3]
  Motility: 33.33%
[4]
  Motility: 100%

## COc1cccc(C(=O)Nc2ccc(-c3nc4ccccc4[nH]3)cc2)c1
[1]
  Motility: 100%
[2]
  Motility: 100%
[3]
  Motility: 100%
[4]
  Motility: 100%

## COCCn1c(C)nc2ccccc2c1=O
[1]
  Motility: 100%
[2]
  Motility: 100%
[3]
  Motility: 100%
[4]
  Motility: 100%

## O=C(Nc1cccc(-c2nc3ccccc3[nH]2)c1)c1cccc(NC(=O)c2ccco2)c1
[1]
  Motility: 100%
[2]
  Motility: 100%
[3]
  Motility: 100%
[4]
  Motility: 100%

## O=C(NC1CCN(Cc2ccccc2)CC1)c1cc(-c2cccnc2)nc2ccc(Cl)cc12
[1]
  Motility: 100%
[2]
  Motility: 100%
[3]
  Motility: 100%
[4]
  Motility: 100%

## CCN(Cc1ccccc1)C1CCN(Cc2cc(Br)ccc2O)CC1.O=C(O)C(=O)O
[1]
  Motility: 100%
[2]
  Motility: 100%
[3]
  Motility: 100%
[4]
  Motility: 100%

## CCOc1ccccc1NC(=O)CN1CCN(C(=O)c2ccco2)CC1
[1]
  Motility: 100%
[2]
  Motility: 100%
[3]
  Motility: 100%
[4]
  Motility: 100%

## COc1ccc(-c2nonc2NC(=O)c2cccc(Cl)c2)cc1OC
[1]
  Motility: 100%
[2]
  Motility: 100%
[3]
  Motility: 100%
[4]
  Motility: 100%

## Cc1cc(NC(=O)c2ccc(-c3ccccc3)cc2)no1
[1]
  Motility: 100%
[2]
  Motility: 100%
[3]
  Motility: 100%
[4]
  Motility: 100%

## CCOc1cc2c(cc1OCC)C(c1cc(C)c(O)c(C)c1)NCC2.Cl (stereo not given)
[1]
  Motility: 100%
[2]
  Motility: 100%
[3]
  Motility: 100%
[4]
  Motility: 100%

## O=C1CC(O)(C(F)(F)C(F)(F)F)Oc2ccccc21 (stereo not given)
[1]
  Motility: 100%
[2]
  Motility: 100%
[3]
  Motility: 100%
[4]
  Motility: 100%

## COc1cc(SC)ccc1C(=O)N1CCCC(C)C1 (stereo not given)
[1]
  Motility: 100%
[2]
  Motility: 100%
[3]
  Motility: 100%
[4]
  Motility: 100%

## CC(C)c1ccc(CNCC(O)c2ccccc2)cc1.Cl (stereo not given)
[1]
  Motility: 100%
[2]
  Motility: 100%
[3]
  Motility: 100%
[4]
  Motility: 100%

## CCOc1cc2c(cc1OCC)C(c1cc(Cl)c(O)c(OCC)c1)NCC2 (stereo not given)
[1]
  Motility: 100%
[2]
  Motility: 100%
[3]
  Motility: 100%
[4]
  Motility: 100%

## COc1ccc(N2CCN(C(CNC(=O)CC(C)(C)C)c3ccc4c(c3)OCO4)CC2)cc1 (stereo not given)
[1]
  Motility: 100%
[2]
  Motility: 100%
[3]
  Motility: 100%
[4]
  Motility: 100%

## Cc1ccc(NC(=O)Nc2cccc(Cl)c2)cc1F
[1]
  Motility: 100%
[2]
  Motility: 100%
[3]
  Motility: 100%
[4]
  Motility: 100%

## O=C(O)C(=O)O.Oc1ccc(Br)cc1CN1CCN(Cc2cccc(F)c2)CC1
[1]
  Motility: 100%
[2]
  Motility: 100%
[3]
  Motility: 100%
[4]
  Motility: 100%

## O=c1nc(C=Cc2ccc(Cl)cc2)oc2ccccc12
[1]
  Motility: 100%
[2]
  Motility: 100%
[3]
  Motility: 100%
[4]
  Motility: 100%

## O=C(NCc1ccco1)C1CCN(S(=O)(=O)c2ccc(Br)cc2)CC1
[1]
  Motility: 100%
[2]
  Motility: 100%
[3]
  Motility: 100%
[4]
  Motility: 100%

## CN(C)c1ccc(N2C(N)=NC(N)=NC2(C)C)cc1
[1]
  Motility: 100%
[2]
  Motility: 100%
[3]
  Motility: 100%
[4]
  Motility: 100%

## COc1ccc(Nc2nc(NCc3ccccc3)c3ccccc3n2)cc1
[1]
  Motility: 100%
[2]
  Motility: 100%
[3]
  Motility: 33.33%
[4]
  Motility: 100%

## COc1ccc(CN2CCN(Cc3ccccc3)CC2)c(O)c1
[1]
  Motility: 100%
[2]
  Motility: 100%
[3]
  Motility: 100%
[4]
  Motility: 100%

## COc1cc2c(cc1OC)C1=NNC(=O)C1=NC(C)(C)C2
[1]
  Motility: 100%
[2]
  Motility: 100%
[3]
  Motility: 100%
[4]
  Motility: 100%

## Oc1c(CN2CCN(c3ccccc3F)CC2)cc(Br)c2cccnc12
[1]
  Motility: 100%
[2]
  Motility: 100%
[3]
  Motility: 66.66%
[4]
  Motility: 100%

## Cl.OC(CNCc1ccccc1)Cn1c2ccccc2c2ccccc21 (stereo not given)
[1]
  Motility: 100%
[2]
  Motility: 100%
[3]
  Motility: 100%
[4]
  Motility: 100%

## CCCCc1c(C)nc2c(OC)cccc2c1O
[1]
  Motility: 100%
[2]
  Motility: 100%
[3]
  Motility: 100%
[4]
  Motility: 100%

## Clc1ccc2c(N3CCCC3)ccnc2c1
[1]
  Motility: 100%
[2]
  Motility: 100%
[3]
  Motility: 100%
[4]
  Motility: 100%

## CCOC(=O)C1CCN(C(=O)CN2C(=O)c3ccccc3C2c2c[nH]c3ccccc23)CC1 (stereo not given)
[1]
  Motility: 100%
[2]
  Motility: 100%
[3]
  Motility: 100%
[4]
  Motility: 100%

## CCOc1ccc(CCNC(=O)c2cccs2)cc1OCC
[1]
  Motility: 100%
[2]
  Motility: 100%
[3]
  Motility: 100%
[4]
  Motility: 100%

## COc1ccc(C(=O)C2CC2c2ccc(Cl)cc2)cc1 (stereo not given)
[1]
  Motility: 100%
[2]
  Motility: 100%
[3]
  Motility: 100%
[4]
  Motility: 100%

## O=c1c2c([nH]c3ccccc13)CCCC2
[1]
  Motility: 100%
[2]
  Motility: 100%
[3]
  Motility: 100%
[4]
  Motility: 100%

## Cc1c(C)n(CC(O)CNC2CCCCC2C)c2ccccc12 (stereo not given)
[1]
  Motility: 100%
[2]
  Motility: 100%
[3]
  Motility: 100%
[4]
  Motility: 100%

## CCCCN(CCCC)S(=O)(=O)c1ccc(NC(=O)c2ccco2)cc1
[1]
  Motility: 100%
[2]
  Motility: 100%
[3]
  Motility: 100%
[4]
  Motility: 100%
